Data reported in PubChem BioAssay (NCI).
Values joined by “and” are separate entries in the source; they are usually repeats but may differ in a detail not shown here. Equal values may be shown once.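 Exposure lasted 48 hours, with cells grown in 96-well plates and compounds tested at five concentrations. Abbreviation: GI50, concentration required for 50% inhibition of growth. TGI: concentration producing complete growth inhibition.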

Legend:
Test in all cases: inhibition of tumour cell growth, NCI panel, 48 h
RXF 393 renal = system: RXF 393 renal
OVCAR-3 ovarian = system: OVCAR-3 ovarian
TK-10 renal = system: TK-10 renal
786-0 renal = system: 786-0 renal
A549 NSCLC = system: A549 NSCLC
SR leukemia = system: SR leukemia
MOLT-4 leukemia = system: MOLT-4 leukemia
UO-31 renal = system: UO-31 renal
RPMI-8226 leukemia = system: RPMI-8226 leukemia
COLO 205 colon = system: COLO 205 colon

Structure (SMILES) | GI50 (RXF 393 renal) [µM] | TGI (RXF 393 renal) | GI50 (OVCAR-3 ovarian) [µM] | TGI (OVCAR-3 ovarian) | GI50 (TK-10 renal) [µM] | TGI (TK-10 renal) [µM] | GI50 (786-0 renal) [µM] | TGI (786-0 renal) | GI50 (A549 NSCLC) [µM] | TGI (A549 NSCLC) | GI50 (SR leukemia) [nM] | TGI (SR leukemia) [µM] | GI50 (MOLT-4 leukemia) [nM] | TGI (MOLT-4 leukemia) | GI50 (UO-31 renal) [µM] | TGI (UO-31 renal) | GI50 (RPMI-8226 leukemia) [µM] | TGI (RPMI-8226 leukemia) | GI50 (COLO 205 colon) [µM] | TGI (COLO 205 colon)
COc1cc2c(C#N)n3c(c2cc1OC)C(=O)C(c1ccccc1)Oc1ccccc1-3 (stereo unspecified) | 3.29 | 19.5 µM | 4.48 | > 100 µM | 3.35 | 21.3 | 5.7 | 39.1 µM | 2.87 | > 100 µM | 2580 | > 100 | 5370 | > 100 µM | – | – | – | – | – | –
CO/N=C(\COc1ccc2c(=O)cc(-c3ccccc3)oc2c1)c1ccc(OC)cc1 | > 100 | > 100 µM | 23.2 | 44.8 µM | > 100 | > 100 | > 100 | > 100 µM | > 100 | > 100 µM | > 100000 | > 100 | – | – | > 100 | > 100 µM | 74 | > 100 µM | > 100 | > 100 µM
C=CCCC12CCCC(=O)C1Sc1ccc3ccccc3c12 (stereo unspecified) | – | 26.2 µM | – | 29 µM | – | 51.2 | – | 48.2 µM | – | 24.5 µM | – | – | – | 39.6 µM | – | 42.5 µM | – | 42.9 µM | – | 29.1 µM
NCC(=O)OCN1C(=O)C2C3C=CC(C2C1=O)C1C2C(=O)N(COC(=O)CN)C(=O)C2C31 (stereo unspecified) | – | 37.9 µM and 42.3 µM | – | 82.1 µM and 93.4 µM | – | > 100 | – | 40.7 µM and 36.8 µM | – | 63.7 µM and 60.6 µM | – | – | – | 69.8 µM and 42.2 µM | – | 97.7 µM and > 100 µM | – | 72.5 µM and 59.7 µM | – | 36.4 µM and 32.2 µM
COc1cc(/C=C\c2cc(/C=C\c3ccc(O)c(OC)c3)n(C(=O)Nc3ccc(C(F)(F)F)cc3)n2)ccc1O | – | – | 3.41 | 26.7 µM | 4.13 | 14.8 | 2.42 | 7.52 µM | 4.11 | > 100 µM | 1480 | > 100 | 2730 | 20 µM | – | – | 2.09 | 6.59 µM | 2.05 | 4.5 µM
CC(C)[C@H](COC(C)(C)C)N=CN1CSc2ccccc21 | – | 95.2 µM | – | 58.2 µM | – | > 100 | – | > 100 µM | – | > 100 µM | – | – | – | > 100 µM | – | > 100 µM | – | 54 µM | – | 39.4 µM
CN1C(=O)NC2(O)c3ccccc3C(=O)C12O (stereo unspecified) | – | – | – | > 100 µM | – | > 100 | – | > 100 µM | – | > 100 µM | – | > 100 | – | > 100 µM | – | > 100 µM | – | > 100 µM | – | > 100 µM
COc1cc([N+](=O)[O-])c(S(=O)(=O)O)cc1-n1nc(-c2ccccc2)n[n+]1-c1cc(S(=O)(=O)[O-])c([N+](=O)[O-])cc1OC | – | > 100 µM | – | > 100 µM | – | – | – | > 100 µM | – | > 100 µM | – | > 100 | – | > 100 µM | – | > 100 µM | – | > 100 µM | – | > 100 µM
S=C(S)NCCCn1ccnc1 | – | – | – | > 100 µM | – | > 100 | – | > 100 µM | – | > 100 µM | – | > 100 | – | > 100 µM | – | > 100 µM | – | > 100 µM | – | > 100 µM
COC(=O)/C1=C/C2CC(/C=C(/c3ccccc3)C(=O)O1)C2 | – | 78 µM | – | > 100 µM | – | > 100 | – | 89.1 µM | – | > 100 µM | – | – | – | 62 µM | – | > 100 µM | – | 64.7 µM | – | 41.7 µM
CNC1=C(Br)C(=O)C2=C(C1=O)C1C3=C(C(=O)C=CC3=O)C2c2ccccc21 (stereo unspecified) | 2.57 | 4.72 µM | 5.29 | 10.9 µM | 10.8 | 34.4 | 2.12 | 4.57 µM | 3.02 | – | – | – | 473 | – | 6.73 | 14.4 µM | – | > 31.4 µM | 4.07 | 35.4 µM
C#Cc1cccc(N2C(=O)CC(=P(c3ccccc3)(c3ccccc3)c3ccccc3)C2=O)c1 | – | – | – | > 100 µM | – | > 100 | – | 75.7 µM | – | > 100 µM | – | > 100 | – | > 100 µM | – | > 100 µM | – | 63.2 µM | – | > 100 µM
O=C(/C=C/c1ccccc1)c1ccc(O)c(CN2CCN(c3cc4c(cc3F)c(=O)c(C(=O)O)cn4C3CC3)CC2)c1 | 1.55 | 15.8 µM | 1.91 | > 100 µM | 6.37 | > 100 | 0.961 | > 100 µM | 3.17 | > 100 µM | 807 | > 100 | – | – | – | – | 0.275 | 6.37 µM | 3.86 | 74.5 µM
COc1ccc(-c2ccc(=O)oc2-c2cc(OC)c(OC)c(OC)c2)cc1O | < 0.01 | 0.011 µM | < 0.01 | 0.16 µM | 62.3 | > 100 | < 0.0228 | 13.9 µM | 0.0595 | > 100 µM | – | – | 51.2 | > 100 µM | < 0.0208 | > 100 µM | 0.0251 | 0.956 µM | 2.21 | > 37.5 µM
O=C1c2ccccc2C(=O)N1C/C=N/NS(=O)(=O)c1ccc(Cl)cc1 | – | – | – | – | – | > 100 | – | > 100 µM | – | > 100 µM | – | > 100 | – | > 100 µM | – | > 100 µM | – | > 100 µM | – | > 100 µM
CC(=O)C1C(=O)C(=O)N(c2ccc(Cl)cc2C)C1=O (stereo unspecified) | – | > 100 µM | – | – | – | > 100 | – | > 100 µM | – | > 100 µM | – | > 100 | – | > 100 µM | – | > 100 µM | – | – | – | > 100 µM
O=C(Oc1ccccc1Cl)c1cccnc1Nc1ccnc(C(F)(F)F)c1 | 19.1 | 42.6 µM | 16.5 | 32.6 µM | 24.7 | 70.7 | 14.7 | 31.4 µM | 30.2 | > 100 µM | – | – | 2520 | 8.97 µM | 14.6 | 32.6 µM | 12.4 | 36.7 µM | 26.6 | 84.5 µM
CC(=O)[CH-]C(=O)c1ccccc1.CC(=O)[CH-]C(=O)c1ccccc1.[O-]c1ccc(O)cc1.[O-]c1ccc(O)cc1.[Ti+4] | 6.64 | 20.5 µM | 13.9 | 27.2 µM | 27.7 | 59.2 | 13.2 | 26 µM | 23.5 | > 100 µM | – | – | 4180 | > 100 µM | 23.7 | 49.5 µM | 5.63 | > 100 µM | 18.2 | 32.6 µM
